Assay results from US20050080076A1 (Xanodyne Pharmacal, Inc., priority 2003, published 2005).

Molecular target: T1, P-glycoprotein (p-gp) (Homo sapiens, UniProt P08183)
T1 construct: using a human colon carcinoma cell line (CACO-2 Model); endogenous in cells; host or cells: CACO-2 (human colon carcinoma cell line)
Assay: P-glycoprotein efflux in CACO-2 Model
Type: in vitro ADME

T1 sequence (P08183 whole entry): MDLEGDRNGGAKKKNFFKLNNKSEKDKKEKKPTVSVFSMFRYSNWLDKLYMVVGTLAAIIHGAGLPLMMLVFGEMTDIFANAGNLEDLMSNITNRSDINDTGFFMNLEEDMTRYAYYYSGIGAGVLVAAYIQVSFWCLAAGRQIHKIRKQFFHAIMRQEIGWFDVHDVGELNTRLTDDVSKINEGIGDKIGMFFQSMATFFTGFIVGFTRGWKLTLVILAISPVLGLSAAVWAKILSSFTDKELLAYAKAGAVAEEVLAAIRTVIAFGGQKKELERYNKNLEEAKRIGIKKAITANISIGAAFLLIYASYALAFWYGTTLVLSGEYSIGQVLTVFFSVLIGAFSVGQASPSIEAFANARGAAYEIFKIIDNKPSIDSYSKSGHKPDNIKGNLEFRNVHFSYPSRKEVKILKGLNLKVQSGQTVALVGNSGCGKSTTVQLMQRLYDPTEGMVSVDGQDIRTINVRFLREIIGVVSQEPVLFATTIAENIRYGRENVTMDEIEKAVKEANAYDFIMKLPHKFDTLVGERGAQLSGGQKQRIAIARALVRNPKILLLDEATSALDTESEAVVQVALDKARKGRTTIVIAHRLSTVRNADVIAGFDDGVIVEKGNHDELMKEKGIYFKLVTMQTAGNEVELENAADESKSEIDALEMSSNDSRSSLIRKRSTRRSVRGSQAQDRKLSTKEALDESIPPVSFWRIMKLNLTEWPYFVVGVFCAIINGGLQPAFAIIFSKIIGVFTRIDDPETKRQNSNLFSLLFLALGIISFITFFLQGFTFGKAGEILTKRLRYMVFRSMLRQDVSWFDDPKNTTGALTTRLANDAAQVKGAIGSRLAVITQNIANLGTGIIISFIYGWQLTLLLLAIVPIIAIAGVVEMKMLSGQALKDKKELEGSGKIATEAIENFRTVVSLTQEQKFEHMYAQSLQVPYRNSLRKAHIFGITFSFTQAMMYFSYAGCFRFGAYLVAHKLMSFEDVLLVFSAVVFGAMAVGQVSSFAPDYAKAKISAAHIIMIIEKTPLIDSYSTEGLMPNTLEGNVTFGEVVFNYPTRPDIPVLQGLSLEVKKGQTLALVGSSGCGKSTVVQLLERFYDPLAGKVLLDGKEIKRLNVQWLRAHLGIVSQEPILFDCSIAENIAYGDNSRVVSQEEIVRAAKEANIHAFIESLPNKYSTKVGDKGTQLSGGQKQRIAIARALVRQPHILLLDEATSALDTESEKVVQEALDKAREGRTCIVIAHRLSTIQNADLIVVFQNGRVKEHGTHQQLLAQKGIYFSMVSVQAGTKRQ

- transport by P-glycoprotein relative to parent LMP: to a lesser degree than the parent LMP
- inhibition of efflux relative to parent LMP (in the presence of p-gp inhibitor verapamil): at least one-half lower
- relative efflux to influx ratio, reduction versus parent LMP (through the enterocyte, less than parent LMP): at least 50%
SMILES: CNCC(C)CN1c2ccccc2Sc2ccc(OC)cc21 (stereo not drawn) [NDM LMP, R(+) 2-methoxy-10-2-methyl-3-monomethylaminopropyl phenothiazine]
